Data set [1] has as its system HEK293. As to the kind of experiment: Fold increase expressed as pmol of cAMP accumulation by the compound/basal level of cAMP produced at 25 uM in multiplex cell based assay; 4.7/3.2. Type of data set: functional, Homo sapiens. Background: cAMP levels reflect the balance of adenylyl cyclase and phosphodiesterase activity.
Data set [2] concerns HEK293. Briefly: Fold increase expressed as pmol of cAMP accumulation by the compound/basal level of cAMP produced by CGRP1-7HEK cells at 25 uM; No activity. As to conditions: Homo sapiens. It counts as functional, cell-based.
Data set [3] concerns HEK293. Briefly: Fold increase expressed as pmol of cAMP accumulation by the compound/basal level of cAMP produced by CTR-2HEK cells at 25 uM. It counts as functional, Homo sapiens.
Data set [4] concerns HEK293. Briefly: Fold increase expressed as pmol of cAMP accumulation by the compound/basal level of cAMP produced by EPTH1-1HEK cells at 25 uM; No activity. It counts as functional, cell-based. As to conditions: Homo sapiens.
Data set [5] has as its system HEK293. As to the kind of experiment: Fold increase expressed as pmol of cAMP accumulation by the compound/basal level of cAMP produced by GIP-1HEK cells at 25 uM; No activity. It counts as functional, cell-based. As to conditions: Homo sapiens.
Data set [6] concerns HEK293. As to the kind of experiment: Fold increase expressed as pmol of cAMP accumulation by the compound/basal level of cAMP produced by GLP1-7HEK cells at 25 uM; No activity. Type of data set: functional, cell-based. The following applies: Homo sapiens.
In data set [7] the test system is HEK293. As to the kind of experiment: Fold increase expressed as pmol of cAMP accumulation by the compound/basal level of cAMP produced by GLU-1HEK cells at 25 uM; No activity. Type of data set: functional, cell-based. The following applies: Homo sapiens.
A short description of data set [8]: Bioavailability in rat after intravenous administration at 1 mpk. Type of data set: ADME, organism-based. The following applies: in vivo, read-out: Bioavailabiility.
The nature of data set [9]: Bioavailability in rat after peroral administration at 30 mpk. Type of data set: ADME, organism-based. As to conditions: in vivo, po, 30 mg/kg, read-out: Bioavailabiility.
The test system of data set [10] is HEK293. Briefly: Fold induction of cAMP accumulation in HEK 293 cells at 75u M. Type of data set: functional, Homo sapiens.
For data set [11], the system named is HEK293. As to the kind of experiment: In vitro cAMP accumulation in HEK 293 cells. The following applies: Homo sapiens. Type of data set: functional, cell-based.
For data set [12], the system named is monkey. Briefly: Bioavailability in monkey after peroral administration at 10 mpk. The following applies: in vivo, po, 10 mg/kg, read-out: Bioavailabiility.
The subject of data set [13] is monkey. As to the kind of experiment: Bioavailability in monkey after intravenous administration at 1 mpk. As to conditions: in vivo, read-out: Bioavailabiility.
The test system of data set [14] is HEK293. Briefly: Fold increase expressed as pmol of cAMP accumulation by the compound/basal level of cAMP produced at 25 uM in multiplex cell based assay; 4.5/5.7. Type of data set: functional, Homo sapiens.
Data set [15] has as its system HEK293. Briefly: Fold increase expressed as pmol of cAMP accumulation by the compound/basal level of cAMP produced at 25 uM in multiplex cell based assay; 4.7/4.0. Type of data set: functional, Homo sapiens.
Data set [16] deals with HEK293. Briefly: Fold increase expressed as pmol of cAMP accumulation by the compound/basal level of cAMP produced at 25 uM in multiplex cell based assay; 5.1/4.4. Type of data set: functional, Homo sapiens.
The subject of another data set is Rattus norvegicus. As to the kind of experiment: Bioavailability in rat after peroral administration at 100 mpk. It counts as functional, organism-based.
A short description of data set [17]: Bioavailability in rat after intravenous administration at 2 mpk. Type of data set: ADME, organism-based. The following applies: in vivo, read-out: Bioavailabiility.

Active and inactive are the calls of the source. The rule behind the calls is not given here.

`C=CCOC(=O)C1=C(C)NC(=O)NC1c1ccc2c(c1)OCO2` (centres undefined): the Fold-induction in the data set with HEK293 [1] came to 4.7; in the data set on HEK293 [3], 8. The Fold-induction result with HEK293 [2], in the data set on HEK293 [4], in the data set on HEK293 [5], with HEK293 [6] and in the data set with HEK293 [7] was “inactive” throughout.

What is called EC50 is the concentration needed to bring the measured effect to its halfway point. As for `CCCC1=C(C(=O)OCc2ccc(C(=O)NCCN3CCCCC3)cc2)C(c2cccc(C)c2)NC(=O)N1` (centres undefined), the bioavailability turned out to be 65% in [8], 65% in data set [9], 13% in the data set on monkey [12] and 13% with monkey [13]. In the data set with HEK293 [10], this compound returned a Fold-induction of 51. For the same compound, the EC50 in the data set with HEK293 [11] amounted to 1.3 µM.

In turn, `CCCC1=C(C(=O)OCc2ccc(C(=O)N(C)C)cc2)C(c2cccc(C)c2)NC(=O)N1` (centres undefined) returned a Fold-induction in the data set on HEK293 [10] of 40. This compound also displayed an EC50 in the data set with HEK293 [11] of 3.4 µM.

Regarding `CCCC1=C(C(=O)OCC)C(c2cccc(Cl)c2)NC(=O)N1` (centres undefined), in the data set with HEK293 [10], the Fold-induction was 21. The compound further registered an EC50 in the data set on HEK293 [11] of 6.8 µM.

Regarding `CC1=C(C(=O)OC2CCCC2C)C(c2ccccc2)NC(=O)N1` (centres undefined), the values for the Fold-induction in the data set with HEK293 [14] and in the data set on HEK293 [3] were 4.5 and 8, respectively. In addition, the Fold-induction entry with HEK293 [2], in the data set on HEK293 [4], in the data set with HEK293 [5], in the data set with HEK293 [6] and in the data set on HEK293 [7] was “inactive” each time.

In the data set with HEK293 [10], `CC1=C(C(=O)OCc2ccccc2)C(c2ccccc2)NC(=O)N1` (centres undefined) displayed a Fold-induction of 17. In addition, in the data set on HEK293 [11], the half-maximal effective concentration (EC50) is more than 20 µM.

Take `CCCC1=C(C(=O)OCC)C(c2cc(C)cc(C)c2)NC(=O)N1` (centres undefined): the Fold-induction in the data set with HEK293 [10] was found to be 34. Also, the EC50 in the data set with HEK293 [11] was found to be 9.5 µM.

Regarding `CCCC1=C(C(=O)OCc2ccc(C(=O)NCCCN3CCCCC3)cc2)C(c2cccc(C)c2)NC(=O)N1` (centres undefined), the Fold-induction in the data set on HEK293 [10] is recorded as 52. Also, the EC50 in the data set on HEK293 [11] stood at 1.9 µM.

The compound `CCCCCC1=C(C(=O)OCC)C(c2cccc(C)c2)NC(=O)N1` (centres undefined) returned a Fold-induction in the data set on HEK293 [10] of 31.

On to `CCCC1=C(C(=O)OCc2ccc(C(=O)NCCCN3CCN(C)CC3)cc2)C(c2cccc(C)c2)NC(=O)N1` (centres undefined), for which the Fold-induction in the data set on HEK293 [10] worked out at 55. Further, in the data set with HEK293 [11], the EC50 was 4.3 µM.

Regarding `CC1=C(C(=O)OCc2ccccc2)C(c2cccc(C)c2)NC(=O)N1` (centres undefined), the Fold-induction in the data set with HEK293 [10] is 23. Further, the half-maximal effective concentration (EC50) with HEK293 [11] came out at 15 µM.

In turn, `CCCC1=C(C(=O)OCc2ccc(C(=O)N(C)CCN3CCCCC3)cc2)C(c2cccc(C)c2)NC(=O)N1` (centres undefined) returned a Fold-induction in the data set on HEK293 [10] of 55. The same compound registered an EC50 in the data set on HEK293 [11] of 4.4 µM.

As to `CCC1=C([N+](=O)[O-])C(c2ccc3c(c2)OCO3)NC(=O)N1` (centres undefined), the Fold-induction with HEK293 [15] came out at 4.7; in the data set on HEK293 [3], 12. The Fold-induction result with HEK293 [2], with HEK293 [4], with HEK293 [5], in the data set on HEK293 [6] and in the data set on HEK293 [7] was “inactive” each time.

For `CCCC1=C(C(=O)OCc2ccc(C(=O)OC)cc2)C(c2cccc(C)c2)NC(=O)N1` (centres undefined), the Fold-induction in the data set with HEK293 [10] stood at 42. This compound yielded an EC50 in the data set on HEK293 [11] of 1 µM.

With `CC1=C(C(=O)OCC(F)(F)C(F)(F)F)C(c2ccccc2)NC(=O)N1` (centres undefined), the Fold-induction was found to be 5.1 in the data set with HEK293 [16] and 9 with HEK293 [3]. In addition, the Fold-induction entry with HEK293 [2], with HEK293 [4], with HEK293 [5], in the data set on HEK293 [6] and in the data set on HEK293 [7] was “inactive” in each case.

In the data set with HEK293 [10], `CCCC1=C(C(=O)OCc2ccccc2)C(c2cccc(C)c2)NC(=O)N1` (centres undefined) showed a Fold-induction of 36. Further, in the data set with HEK293 [11], the response was half-maximal at 5.2 µM (EC50).

In the data set on HEK293 [10], `CCCC1=C(C(=O)OCc2ccc(C(=O)O)cc2)C(c2cccc(C)c2)NC(=O)N1` (centres undefined) returned a Fold-induction of 61. In addition, the 50% effective concentration (EC50) in the data set with HEK293 [11] was found to be 3.4 µM.

`CC(C)C[C@H](NC(=O)[C@H](CCCCN)NC(=O)CNC(=O)[C@H](CC(C)C)NC(=O)[C@@H](NC(=O)[C@@H]1CSSC[C@H](N)C(=O)N[C@@H](CO)C(=O)N[C@@H](CC(N)=O)C(=O)N[C@@H](CC(C)C)C(=O)N[C@@H](CO)C(=O)N[C@@H]([C@@H](C)O)C(=O)N1)C(C)C)C(=O)N[C@@H](CO)C(=O)N[C@@H](CCC(N)=O)C(=O)N[C@@H](CCC(=O)O)C(=O)N[C@@H](CC(C)C)C(=O)N[C@@H](Cc1c[nH]cn1)C(=O)N[C@@H](CCCCN)C(=O)N[C@@H](CC(C)C)C(=O)N[C@@H](CCC(N)=O)C(=O)N[C@H](C(=O)N[C@@H](Cc1ccc(O)cc1)C(=O)N1CCC[C@H]1C(=O)N[C@@H](CCCNC(=N)N)C(=O)N[C@H](C(=O)N[C@@H](CC(N)=O)C(=O)N[C@H](C(=O)NCC(=O)N[C@@H](CO)C(=O)NCC(=O)N[C@H](C(=O)N1CCC[C@H]1C(N)=O)[C@@H](C)O)[C@@H](C)O)[C@@H](C)O)[C@@H](C)O` [CALCITONIN SALMON] yielded a Fold-induction in the data set on HEK293 [10] of 40. Besides, the response in the data set with HEK293 [11] was half-maximal at 0.003 µM (EC50).

Consider `CCCC1=C(C(=O)OCc2ccc(C(=O)NCCCN(C)C)cc2)C(c2cccc(C)c2)NC(=O)N1` (centres undefined), for which the Fold-induction with HEK293 [10] worked out at 55. In the data set on HEK293 [11], this compound returned an EC50 of 1.4 µM.

For the compound `CCCC1=C(C(=O)OCC)C(c2cccc(C)c2)NC(=O)N1` (centres undefined), the bioavailability (with Rattus norvegicus; in data set [17]) was 2% in each case. For the same compound, in the data set on HEK293 [10], the Fold-induction was 35. The same compound came in with a concentration giving a half-maximal response (EC50) with HEK293 [11] of 7.5 µM.

As for `COc1ccc(COC(=O)C2=C(C(C)C)NC(=O)NC2c2cccc(C)c2)cc1` (centres undefined), in the data set on HEK293 [10], the Fold-induction turned out to be 33. Also, the EC50 with HEK293 [11] came out at 5.8 µM.

The compound `CCCC1=C(C(=O)OCc2ccc(C(=O)NCCN3CCOCC3)cc2)C(c2cccc(C)c2)NC(=O)N1` (centres undefined) registered a Fold-induction in the data set on HEK293 [10] of 50. This compound also returned a 50% effective concentration (EC50) in the data set on HEK293 [11] of 4.3 µM.

The record behind these values is ChEMBL document CHEMBL1147586, “Discovery of a dihydropyrimidine series of molecules that selectively mimic the biological actions of calcitonin” (Bioorg Med Chem Lett, 2004).
